Results as given in patent US20090061513A1, “Cell sorting and cell cultivation methods” (PicoVitro AB, priority 2007, published 2009).

Test system: doxorubicin resistant sub line RPMI8226Dox40
Experiment: Single cell seeding and cultivation in microplate with doxorubicin-spiked growth medium (drug resistance screening), resistant cells
Format: cell-based, human
Conditions: 6 days of incubation, resistant vs sensitive cells
Description: The clean plates and semi-permeable top membranes were autoclaved for 20 min at 121° C. to obtain a sterile cell culture environment. An excess of recommended growth medium was added to the plate, and manually distributed evenly to all wells by an autoclaved hand scraper (VWR) or sterile cell scrapers (Falcon, for one-time use only). Then, automatic single cell seeding into predefined wells of the microplate was carried out using the FACS. A motorized x/y-stage combined with the software CloneCyt Plus (BD Biosciences) was used to control the exact position of every cell sorted in the plate. Selection of the cells to be seeded was performed based on their individual FSC/SSC (forward scatter/side scatter) properties (i.e. size and granularity). The cells were analyzed at a rate of approximately 100 cells/s. A representative set of cells was sought, meaning that all viable cells in the sample were selected for seeding into the plate. The cells were sorted directly from recommended growth medium in concentrations ranging from 10^5-10^6 cells/ml. FACS Clean solution (BD Biosciences) was let through the fluidics of the FACS prior to experiments to obtain sterility. The x/y-stage and the surrounding of the fluidics outlet was cleaned with 70% EtOH. During analysis, sterile 0.25×PBS was used as sheath buffer. […]

Structure (SMILES): COc1cccc2c1C(=O)c1c(O)c3c(c(O)c1C2=O)C[C@@](O)(C(=O)CO)C[C@@H]3O[C@H]1C[C@H](N)[C@H](O)[C@H](C)O1 [Doxorubicin, doxorubicin]
- Proliferation at higher drug concentrations: only resistant cells can proliferate at higher drug concentrations
